Measured values published in paper PMC8224775, “Five Tetramic Acid Derivatives Isolated from the Iranian Fungus Colpoma quercinum CCTU A372” (Biomolecules, 2021).
≈ marks a conversion by molar mass, not a printed value. Where two headings read alike, the source gives them in different places.

Legend:
Assay in all cases: Antimicrobial serial dilution assay (MIC)
Assay type in all cases: cell-based
Bacillus subtilis DSM 10 = conditions: overnight
Method: (§1) Antimicrobial activity was determined by our established protocol, according to Becker et al.. In general, all of the pure compounds were dissolved in MeOH with a concentration of 1 mg/mL. Assessment of the antimicrobial activity was determined using the serial dilution assay method to calculate the minimum inhibitory concentration (MIC). In this method, the compounds were diluted in a range between 67 and 0.5 µg/mL in 96 well-plate and incubated with the test organism overnight. The next day, growth of the test organisms was visually observed, and MIC was determined in the lowest concentration where a clear zone (no growth of test organism) was observed. In our attempt for novel anti-infective compounds, an established standard protocol using various organisms representing a broad spectrum of pathogens of clinical interest, as well as sensitive indicator strains, was used (bacteria: Bacillus subtilis DSM 10, Staphylococcus aureus DSM 346, Acinetobacter baumanii DSM 30008, Chromobacterium violaceum DSM 30191, Escherichia coli DSM 1116 and Pseudomonas aeruginosa PA14; mycobacteria: Mycobacterium smegmatis ATCC 700084 and fungi: Candida albicans DSM 1665, Schizosaccharomyces pombe DSM 70572, Mucor hiemalis DSM 2656, Wickerhamomyces anomala DSM 6766 and Rhodotorula glutinis DSM 10134). Methanol as a solvent to dissolve the pure compounds was used as the negative control. Oxytetracycline, ciprofloxacin, gentamycin, and kanamycin were used as positive controls against bacteria, whereas nystatin was used against fungi. A detailed experimental procedure can be found in the SI.
(§2) Protocol: Antimicrobial Activity Assay
(§3) The assay was conducted as a minimum inhibitory concentration (MIC) assay in 96-well round- bottom microtiter plates using the parameters summarized in Table S1 and as already described in [S1]. Stocks of the test organisms were generated by growing the organisms overnight in 50 mL shaking flasks filled with 25 mL of the growth medium at 140r p m ( media and temperatures see Table S1). If the organisms were well grown the next day, which was checked by the occurrence of an optical density (OD) […] of the suspension (OD600 nm for bacteria, OD548 nm for fungi and M. smegmatis), aliquots of these were stored in 1.5 mL reaction tubes in a freezer at −80 °C for up to 12 months. Upon use, aliquots were unthawed and the OD of the suspension measured and adjusted by diluting with the respective growth medium. OD600 nm was adjusted to 0.01 and OD548 nm to 0.1. Subsequently, 150 μ L of the adj usted suspensions were added to all wells of a 96-well microtiter plate (one test organism per plate). In row A, additional 130 μ L of suspensions plus 20 μ L of the test compounds (1 mg/mL) and the controls (one compound/column) were added. MeOH was used as negative controls, while different positive controls (references) were used for the test organisms (see Table S1). Then, starting from row A, 150 μ L of t he suspension were transferred to the next row, the contents thoroughly mixed, and 150 μ L transferred to the following row. The remaining 150 μ L after row H were discarded. […]
(§4) of the test compounds, ranging from 66.7 μg/mL in row A to 0.52 μ g/mL in row H. The microtiter plates were then incubated overnight on a microplate shaker at 800 rpm at 30 or 37 °C (see Table S1) and were visually evaluated the next day. The MIC is defined as the lowest concentration where no growth of the test organism (clear zone) was observed. A lower MIC thus corresponds to a higher antimicrobial activity of the test compound.
Table S1: MIC assay experiment parameters test organism strain No growth incubation positive control
Bacillus subtilis DSM10 MHB1 30 oxytetracyclin 1.0mg/ mL […]
(§5) Candidaa lbicans DSM1665 MYC3 30 nystatin 1.0mg/ mL
(§6) Schizosaccharomyces DSM70572 MYC3 30 nystatin 1.0mg/ mL
(§7) Mucor hiemalis DSM2656 MYC3 30 nystatin 1.0mg/ mL
(§8) Wickerhamomyces DSM6766 MYC3 30 nystatin 1.0mg/ mL
(§9) Rhodotorula glutinis DSM10134 MYC3 30 nystatin 1.0mg/ mL […]

[1] = test system: Staphylococcus aureus DSM 346; conditions: serial dilution 67 to 0.5 µg/mL, overnight
Method: as §1, §2, §3
as §4, with “A lower MIC thus corresponds to a higher antimicrobial activity of the test compound.” left out

[2] = test system: Acinetobacter baumanii DSM 30008; conditions: serial dilution 67 to 0.5 µg/mL, overnight
Method: as §1, §2, §3, §4
(§10) Table S1: MIC assay experiment parameters test organism strain No growth incubation positive control […]
as §5, §6, §7, §8
(§11) Rhodotorula glutinis DSM10134 MYC3 30 nystatin 1.0mg/ mL
(§12) 1 MHB: Müller-Hinton Broth (SN X927.1, CarlRoth GmbH, Karlsruhe, Germany) […]

Mucor hiemalis DSM 2656 = conditions: overnight
Method: as §1, §2, §3, §4, §10, §5, §6, §7, §8, §11, §12

Pichia anomala DSM 6766 = conditions: serial dilution 67 to 0.5 µg/mL, overnight
Method: as §1, §2, §3, §4, §10, §5, §6, §7, §8, §11, §12

[3] = test system: Rhodotorula glutinis DSM 10134; conditions: serial dilution 67 to 0.5 µg/mL, overnight
Method: as §1, §2, §3, §4, §10, §5, §6, §7, §8, §11, §12

Escherichia coli = conditions: serial dilution 67 to 0.5 µg/mL, overnight
Method: as §1, §2, §3, §4, §10
Escherichia coli DSM1116 MHB1 37 oxytetracyclin 1.0mg/ mL […]
as §5, §6, §7, §8, §9

[4] = serial dilution 67 to 0.5 µg/mL

MIC (Bacillus subtilis DSM 10; [4])	MIC [1]	MIC [2]	MIC (Mucor hiemalis DSM 2656; [4])	MIC (Pichia anomala DSM 6766)	MIC [3]	MIC (Escherichia coli)	MIC (Bacillus subtilis DSM 10; DSM10, serial dilution 67 to 0.5 µg/mL, read-out: MIC)	MIC (Mucor hiemalis DSM 2656; DSM2656, serial dilution 67 to 0.5 µg/mL, read-out: MIC)	Structure (SMILES)
n.i	n.i	n.i	n.i	n.i	n.i	n.i	–	–	CC(=O)OC(C(=O)O)C(C)C1C(C)=CC2CC(C)CCC2C1(C)C(O)=C1C(=O)C(C)N(C)C1=O (stereo not shown) [compound 1, Colposetin A]
–	–	n.i	–	n.i	n.i	n.i	67 µg/mL (≈ 160 µM)	67 µg/mL (≈ 160 µM)	CCC(C(=O)O)C1C(C)=CC2CC(C)CCC2C1(C)C(O)=C1C(=O)C(C)N(C)C1=O (stereo not shown) [compound 2, Colposetin B]

More lines, now with the values behind:

Structure (SMILES)	MIC (Bacillus subtilis DSM 10; [4])	MIC [1]	MIC [2]	MIC (Mucor hiemalis DSM 2656; [4])	MIC (Pichia anomala DSM 6766)	MIC [3]	MIC (Escherichia coli)	MIC (Bacillus subtilis DSM 10; DSM10, serial dilution 67 to 0.5 µg/mL, read-out: MIC)	MIC (Mucor hiemalis DSM 2656; DSM2656, serial dilution 67 to 0.5 µg/mL, read-out: MIC)
CC1=CC2CC(C)CCC2C2(C)C(=O)OC(C(=O)O)C(C)C12 (stereo not shown) [compound 3, Colposetin C]	n.i	n.i	n.i	n.i	n.i	n.i	n.i	–	–
CC(C=CCC(C)CCC=C(C)C(=O)C1=C(O)C(C)N(C)C1=O)=CC(C)C(O)C(=O)O (stereo not shown) [compound 4, Colpomenoic acid A]	n.i	n.i	n.i	n.i	n.i	n.i	n.i	–	–
CC(C=CCC(C)C=CC=C(C)C(=O)C1=C(O)C(C)N(C)C1=O)=CC(C)C(O)C(=O)O (stereo not shown) [compound 5, Colpomenoic acid B]	n.i	n.i	n.i	n.i	n.i	n.i	n.i	–	–
